Experimental data: ChEMBL document CHEMBL4819104, “Discovery of 2-amino-3-amido-5-aryl-pyridines as highly potent, orally bioavailable, and efficacious PERK kinase inhibitors” (Bioorg Med Chem Lett, 2021)
In brackets after ≈: the same amount, converted by molar mass.

How the values were obtained:
[1] = Aqueous solubility of the compound; type: physicochemical; details: buffer
[2] = Efflux ratio of apparent permeability in human Caco-2 cells; type: ADME, cell-based
[3] = Plasma protein binding in human; type: ADME, cell-free; details: read-out: PPB (converted)
[4] = Plasma protein binding in mouse; type: ADME, cell-free; details: read-out: PPB (converted)
[5] = Plasma protein binding in dog; type: ADME, cell-free, Canis lupus familiaris; details: read-out: PPB (converted)
[6] = Half life in human hepatocytes; type: ADME, cell-based, Hepatocyte
[7] = Half life in mouse hepatocytes; type: ADME, cell-based, Hepatocyte
[8] = target: Aurora kinase B (Homo sapiens) (UniProt Q96GD4); experiment: Inhibition of wild-type human partial length AURKB (D25 to A303 residues) expressed in mammalian expression system assessed as residual activity at 10 uM by Kinomescan method relative to control
[9] = target: Macrophage colony-stimulating factor 1 receptor (Homo sapiens) (UniProt P07333); experiment: Inhibition of wild-type human partial length CSF1R (I564 to S939 residues) expressed in bacterial expression system assessed as residual activity at 10 uM by Kinomescan method relative to control
[10] = target: Epithelial discoidin domain-containing receptor 1 (Homo sapiens) (UniProt Q08345); experiment: Inhibition of wild-type human partial length DDR1 (R565 to V876 residues) expressed in bacterial expression system assessed as residual activity at 10 uM by Kinomescan method relative to control
[11] = target: Mast/stem cell growth factor receptor Kit (Homo sapiens) (UniProt P10721); experiment: Inhibition of wild-type human partial length KIT (I571 to D952 residues) expressed in bacterial expression system assessed as residual activity at 10 uM by Kinomescan method relative to control
[12] = target: T1, Mitogen-activated protein kinase 12 (Homo sapiens) (UniProt P53778); experiment: Inhibition of wild-type human full length p38-gamma (M1 to L367 residues) expressed in mammalian expression system assessed as residual activity at 10 uM by Kinomescan method relative to control
T1 sequence (whole entry): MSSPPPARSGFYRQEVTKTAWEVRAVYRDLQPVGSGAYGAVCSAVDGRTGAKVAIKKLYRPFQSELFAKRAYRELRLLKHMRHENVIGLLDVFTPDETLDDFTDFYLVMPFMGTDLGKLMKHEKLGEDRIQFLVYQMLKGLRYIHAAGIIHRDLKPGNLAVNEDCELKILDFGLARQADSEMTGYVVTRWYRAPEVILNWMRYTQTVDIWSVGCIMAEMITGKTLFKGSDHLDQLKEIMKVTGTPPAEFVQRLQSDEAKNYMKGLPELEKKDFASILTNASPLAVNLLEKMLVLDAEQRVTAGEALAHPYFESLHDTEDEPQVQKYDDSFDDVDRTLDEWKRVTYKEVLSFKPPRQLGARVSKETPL

[13] = Cmax in mouse at 10 mg/kg, po; type: ADME, organism-based; parameters: route oral, dose 10 mg/kg; details: in vivo
786-0 = experiment: Anticancer activity against human 786-0 cells xenografted in clear cell renal cell carcinoma mouse model assessed as tumor growth inhibition at 10 mg/kg measured at day 28 relative to control; type: functional; details: 786-0, 672 h, read-out: TGI

Macrophage colony-stimulating factor 1 receptor (Homo sapiens), sequence (P07333 whole entry, the tested form may be a part): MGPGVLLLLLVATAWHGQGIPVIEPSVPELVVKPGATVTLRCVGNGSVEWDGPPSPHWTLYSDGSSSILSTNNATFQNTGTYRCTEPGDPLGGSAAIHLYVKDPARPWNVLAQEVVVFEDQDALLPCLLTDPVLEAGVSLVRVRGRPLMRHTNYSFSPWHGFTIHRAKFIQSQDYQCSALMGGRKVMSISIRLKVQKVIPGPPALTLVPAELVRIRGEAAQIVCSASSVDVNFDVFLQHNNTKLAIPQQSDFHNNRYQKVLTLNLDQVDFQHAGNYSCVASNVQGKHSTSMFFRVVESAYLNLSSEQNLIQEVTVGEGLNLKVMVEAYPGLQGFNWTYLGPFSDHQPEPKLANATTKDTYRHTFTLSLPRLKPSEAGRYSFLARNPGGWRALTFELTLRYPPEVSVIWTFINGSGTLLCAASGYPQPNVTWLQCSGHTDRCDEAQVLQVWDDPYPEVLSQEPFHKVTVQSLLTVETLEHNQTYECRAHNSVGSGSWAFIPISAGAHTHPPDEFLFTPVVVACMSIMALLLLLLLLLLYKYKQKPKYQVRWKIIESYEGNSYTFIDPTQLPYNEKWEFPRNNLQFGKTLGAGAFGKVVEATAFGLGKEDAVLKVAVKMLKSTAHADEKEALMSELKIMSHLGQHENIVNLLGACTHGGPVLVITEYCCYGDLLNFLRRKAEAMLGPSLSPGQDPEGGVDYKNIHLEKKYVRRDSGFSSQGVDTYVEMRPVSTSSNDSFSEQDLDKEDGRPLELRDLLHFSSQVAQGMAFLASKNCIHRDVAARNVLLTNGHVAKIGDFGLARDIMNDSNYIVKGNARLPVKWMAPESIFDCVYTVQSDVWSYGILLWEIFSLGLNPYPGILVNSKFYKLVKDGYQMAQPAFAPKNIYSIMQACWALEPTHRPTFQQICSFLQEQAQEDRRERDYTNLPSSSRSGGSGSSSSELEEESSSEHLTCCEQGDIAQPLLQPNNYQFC
Epithelial discoidin domain-containing receptor 1 (Homo sapiens), sequence (Q08345 whole entry, the tested form may be a part): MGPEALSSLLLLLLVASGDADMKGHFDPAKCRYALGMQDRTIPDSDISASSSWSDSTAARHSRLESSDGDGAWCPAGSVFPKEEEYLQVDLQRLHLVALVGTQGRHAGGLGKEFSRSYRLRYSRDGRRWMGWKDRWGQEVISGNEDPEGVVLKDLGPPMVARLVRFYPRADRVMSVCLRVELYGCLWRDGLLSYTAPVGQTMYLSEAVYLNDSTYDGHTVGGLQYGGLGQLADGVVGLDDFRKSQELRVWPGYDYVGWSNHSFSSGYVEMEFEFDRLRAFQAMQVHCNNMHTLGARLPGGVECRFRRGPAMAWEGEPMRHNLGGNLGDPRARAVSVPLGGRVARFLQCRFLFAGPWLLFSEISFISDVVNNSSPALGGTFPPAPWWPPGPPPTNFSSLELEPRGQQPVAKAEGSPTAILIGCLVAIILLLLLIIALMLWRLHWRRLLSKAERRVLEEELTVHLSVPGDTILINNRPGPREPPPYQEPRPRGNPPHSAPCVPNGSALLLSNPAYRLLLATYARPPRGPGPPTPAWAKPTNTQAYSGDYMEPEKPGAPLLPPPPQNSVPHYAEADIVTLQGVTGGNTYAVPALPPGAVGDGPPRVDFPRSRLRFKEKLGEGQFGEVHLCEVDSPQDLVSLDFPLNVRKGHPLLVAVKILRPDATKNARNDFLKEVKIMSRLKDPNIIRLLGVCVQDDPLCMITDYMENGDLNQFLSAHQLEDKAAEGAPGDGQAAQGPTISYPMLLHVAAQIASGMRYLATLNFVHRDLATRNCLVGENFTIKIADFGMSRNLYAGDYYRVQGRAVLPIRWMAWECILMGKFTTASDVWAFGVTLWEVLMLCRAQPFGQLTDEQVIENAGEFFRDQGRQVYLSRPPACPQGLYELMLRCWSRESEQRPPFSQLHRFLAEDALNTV
Mast/stem cell growth factor receptor Kit (Homo sapiens), sequence (P10721 whole entry, the tested form may be a part): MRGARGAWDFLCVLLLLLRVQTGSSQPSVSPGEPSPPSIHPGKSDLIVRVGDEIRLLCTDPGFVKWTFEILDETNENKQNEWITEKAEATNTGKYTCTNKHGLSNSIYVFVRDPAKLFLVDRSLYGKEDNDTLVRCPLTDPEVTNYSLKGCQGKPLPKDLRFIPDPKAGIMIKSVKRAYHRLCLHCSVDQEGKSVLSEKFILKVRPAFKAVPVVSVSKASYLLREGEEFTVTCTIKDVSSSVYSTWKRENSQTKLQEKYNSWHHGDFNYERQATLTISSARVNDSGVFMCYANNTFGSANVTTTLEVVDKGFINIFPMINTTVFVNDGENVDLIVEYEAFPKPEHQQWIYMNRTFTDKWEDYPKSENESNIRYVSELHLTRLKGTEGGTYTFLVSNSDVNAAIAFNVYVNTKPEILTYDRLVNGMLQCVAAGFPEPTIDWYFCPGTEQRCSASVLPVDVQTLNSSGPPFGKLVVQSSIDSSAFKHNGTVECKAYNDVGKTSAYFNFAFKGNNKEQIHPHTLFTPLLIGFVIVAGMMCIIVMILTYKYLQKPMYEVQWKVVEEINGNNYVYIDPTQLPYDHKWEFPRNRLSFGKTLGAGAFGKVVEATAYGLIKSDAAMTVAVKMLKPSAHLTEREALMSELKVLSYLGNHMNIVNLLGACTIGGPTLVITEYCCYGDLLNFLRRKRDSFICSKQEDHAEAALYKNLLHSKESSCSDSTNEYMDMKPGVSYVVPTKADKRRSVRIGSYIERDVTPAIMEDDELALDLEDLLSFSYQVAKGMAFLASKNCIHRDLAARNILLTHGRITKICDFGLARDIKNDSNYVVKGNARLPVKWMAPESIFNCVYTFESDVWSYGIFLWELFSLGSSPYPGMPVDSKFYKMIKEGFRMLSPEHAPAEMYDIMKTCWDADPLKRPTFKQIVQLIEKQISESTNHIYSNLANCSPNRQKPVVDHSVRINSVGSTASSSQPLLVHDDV
Aurora kinase B (Homo sapiens), sequence (Q96GD4 whole entry, the tested form may be a part): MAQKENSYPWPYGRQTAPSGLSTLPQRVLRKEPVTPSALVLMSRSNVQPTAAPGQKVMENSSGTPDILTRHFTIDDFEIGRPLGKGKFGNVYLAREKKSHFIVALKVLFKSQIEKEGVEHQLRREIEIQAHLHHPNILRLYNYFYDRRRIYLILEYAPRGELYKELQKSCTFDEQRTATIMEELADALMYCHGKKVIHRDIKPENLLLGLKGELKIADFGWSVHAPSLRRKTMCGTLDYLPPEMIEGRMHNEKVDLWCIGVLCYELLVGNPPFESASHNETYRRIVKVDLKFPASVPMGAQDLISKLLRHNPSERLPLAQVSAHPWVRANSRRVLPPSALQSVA

solubility [1]: 10 µM (≈ 4.69 µg/mL)
efflux ratio [2]: 2.3
fraction unbound [3]: 0.003
fraction unbound [4]: 0.006
fraction unbound [5]: 0.002
half-life [6]: 310 min
half-life [7]: 63 min
Activity [8]: 75%
Activity [9]: 74%
Activity [10]: 100%
Activity [11]: 67%
Activity [12]: 87%
Cmax [13]: 3350 ng/mL
SMILES: CCc1cc(NC(=O)[C@H](O)c2cc(F)cc(F)c2)ccc1-c1cnc(N)c(C(=O)NC(C)C)c1
inhibition in vivo at 10 mg/kg (786-0): 40%
